“And” between values parts separate entries of the source, which are not always exact repeats. Equal entries are not always repeated. ± gives the uncertainty stated by the source.
Assays:
[1] = xn = mol fraction of the nth substance listed

CC(=O)OCc1ccccc1
Settings	viscosity [mPa·s]
323.15 K, 101.33 kPa	1.23 ± 0.18

CC(C)C(=O)O
viscosity [mPa·s]
Settings	293.15 K	301.15 K	302.15 K	303.15 K	305.15 K	308.15 K	311.15 K	313.15 K	315.15 K
101 kPa	–	1.168 ± 0.0096	1.148 ± 0.007	–	1.099 ± 0.0067	1.047 ± 0.0064	1.008 ± 0.0062	0.9841 ± 0.0061	0.9512 ± 0.0082
101.33 kPa	1.326 ± 0.013	–	–	1.12 ± 0.029	–	–	–	1.004 ± 0.01	–

CCCCCCCCCC(=O)OC
100 kPa
Settings	viscosity [mPa·s]
293.15 K	2.115 ± 0.046
298.15 K	1.919 ± 0.12
303.15 K	1.745 ± 0.11
318.15 K	1.345 ± 0.081
323.15 K	1.243 ± 0.075

CCCCCCCCCCCCCCCC
Settings	viscosity [mPa·s]
293.15 K, 100 kPa	3.408 ± 0.04
293.15 K, 101 kPa	3.408 ± 0.023
293.15 K, 102 kPa	3.48 ± 0.03
293.2 K, 101.3 kPa	3.507 ± 0.039
298.15 K, 101 kPa	3.002 ± 0.03
303.15 K, 101 kPa	2.703 ± 0.072
303.2 K, 101.3 kPa	2.78 ± 0.031
308.15 K, 101.33 kPa	2.381 ± 0.055
318.15 K, 100 kPa	1.996 ± 0.024
318.15 K, 101 kPa	1.996 ± 0.015
318.15 K, 101.33 kPa	1.92 ± 0.045
318.16 K, 101 kPa	2.039 ± 0.015
323.15 K, 102 kPa	1.85 ± 0.02

CCCCCCCCCCCCCC[P+](CCCC)(CCCC)CCCC.CCCCCCCCCCCCc1ccccc1S(=O)(=O)[O-]
101 kPa
Settings	viscosity [mPa·s]
313.15 K	1480 ± 110
323.15 K	750 ± 46

CCCC[N+]1(C)CCCCC1.O=S(=O)([N-]S(=O)(=O)C(F)(F)F)C(F)(F)F
Settings	viscosity [mPa·s]
298.15 K, 101 kPa	178.5 ± 8.6

CCOCCOCC
101.33 kPa
Settings	viscosity [mPa·s]
298.15 K	0.602 ± 0.017
308.15 K	0.522 ± 0.015

CC[n+]1ccn(C)c1.COS(=O)(=O)[O-]
101 kPa
Settings	viscosity
293.15 K	84.14 ± 2.4 mPa·s
298.15 K	84.3 ± 24 mPa·s and 68.5 ± 4.2 mPa·s
303.15 K	68.7 ± 12 mPa·s and 55.4 ± 3.4 mPa·s and 57.93 ± 2 mPa·s
308.15 K	56.7 ± 5.9 mPa·s and 45.5 ± 2.8 mPa·s
313.15 K	47.6 ± 6.7 mPa·s and 37.9 ± 2.3 mPa·s and 39.54 ± 0.55 mPa·s
323.15 K	28.33 ± 0.49 mPa·s

CCn1cc[n+](C)c1.C[C@H](N)C(=O)[O-]
101 kPa
Settings	viscosity [mPa·s]
308.15 K	137.5 ± 6.2
313.15 K	103.5 ± 4.1

ClC(Cl)Cl
Settings	viscosity
293.15 K, 101.33 kPa	0.5659 ± 0.016 mPa·s
293.16 K, 101 kPa	0.563 ± 0.015 mPa·s
298 K, 101 kPa	0.5427 ± 0.0079 mPa·s
298 K, 101.33 kPa	0.538 ± 0.007 mPa·s
298.16 K, 101 kPa	0.542 ± 0.014 mPa·s
303 K, 101.3 kPa	0.5254 ± 0.019 mPa·s and 0.5249 ± 0.0097 mPa·s
303 K, 101.33 kPa	0.517 ± 0.007 mPa·s
303.15 K, 101.3 kPa	0.5129 ± 0.0036 mPa·s and 0.5129 ± 0.051 mPa·s and 0.5033 ± 0.0094 mPa·s
303.15 K, 101.33 kPa	0.514 ± 0.1 mPa·s and 0.471 ± 0.014 mPa·s
303.16 K, 101 kPa	0.514 ± 0.014 mPa·s
303.75 K, 101 kPa	0.5393 ± 0.014 mPa·s
308 K, 101 kPa	0.4881 ± 0.0073 mPa·s
308.15 K, 101 kPa	0.482 ± 0.005 mPa·s
308.15 K, 101.33 kPa	0.452 ± 0.013 mPa·s and 0.5065 ± 0.0051 mPa·s and 0.485 ± 0.004 mPa·s
311 K, 101.3 kPa	0.4893 ± 0.018 mPa·s and 0.4893 ± 0.0092 mPa·s
313 K, 101.33 kPa	0.479 ± 0.006 mPa·s
313.15 K, 101 kPa	0.472 ± 0.01 mPa·s and 0.4891 ± 0.013 mPa·s and 0.557 ± 0.015 mPa·s
318 K, 101 kPa	0.4487 ± 0.0068 mPa·s
318.15 K, 101.33 kPa	0.442 ± 0.004 mPa·s
319 K, 101.3 kPa	0.4566 ± 0.017 mPa·s and 0.4571 ± 0.0087 mPa·s
323 K, 101.33 kPa	0.447 ± 0.006 mPa·s
323.15 K, 101 kPa	0.491 ± 0.013 mPa·s
323.15 K, 101.33 kPa	0.4473 ± 0.0045 mPa·s

FC(F)Cl
101 kPa
Settings	viscosity [mPa·s]
293.25 K	0.1758 ± 0.0048
313.35 K	0.1381 ± 0.0038

O=C(O)CCl
Settings	viscosity [mPa·s]
323.15 K, 101 kPa	3.091 ± 0.03

O=CC(Cl)(Cl)Cl
viscosity
Settings	298.15 K	308.15 K	313.15 K	318.15 K	323.15 K
101 kPa	1.055 ± 0.044 mPa·s and 1.055 ± 0.01 mPa·s (2×)	0.9017 ± 0.0089 mPa·s	1.009 ± 0.027 mPa·s and 0.8411 ± 0.022 mPa·s	0.934 ± 0.025 mPa·s	0.764 ± 0.032 mPa·s and 0.7641 ± 0.0076 mPa·s and 0.869 ± 0.023 mPa·s
101.33 kPa	1.055 ± 0.014 mPa·s	–	–	–	0.7641 ± 0.01 mPa·s

OCC(F)(F)C(F)(F)F
100 kPa
Settings	viscosity [mPa·s]
298.15 K	3.367 ± 0.069
323.15 K	1.518 ± 0.032

O=CC(Cl)(Cl)Cl + OCc1ccccc1
viscosity [mPa·s], [1], 101 kPa
Settings	298.15 K	323.15 K
x1 = 0.0986	7.956 ± 0.33	3.521 ± 0.15
x1 = 0.1891	12.34 ± 0.51	4.774 ± 0.2
x1 = 0.2795	18.57 ± 0.77	6.41 ± 0.27
x1 = 0.3562	21.83 ± 0.91	6.783 ± 0.28
x1 = 0.4064	40.42 ± 1.7	9.558 ± 0.4
x1 = 0.4364	50.35 ± 2.1	10.85 ± 0.46
x1 = 0.4751	55.16 ± 2.3	10.57 ± 0.45
x1 = 0.493	54.24 ± 2.2	10.21 ± 0.45
x1 = 0.4998	51.18 ± 2.1	10.01 ± 0.94
x1 = 0.5395	39.89 ± 1.7	8.491 ± 0.36
x1 = 0.5925	24.53 ± 1	6.78 ± 0.28
x1 = 0.6679	9.262 ± 0.39	3.796 ± 0.16
x1 = 0.7564	2.888 ± 0.12	1.639 ± 0.068
x1 = 0.8827	2.072 ± 0.086	1.307 ± 0.054

O=C(O)CCl + Oc1ccccc1
[1], 323.15 K, 101 kPa
Settings	viscosity [mPa·s]
x2 = 0.1128	3.125 ± 0.079
x2 = 0.1918	3.113 ± 0.079
x2 = 0.26	3.103 ± 0.079
x2 = 0.3059	3.112 ± 0.079
x2 = 0.405	3.121 ± 0.079
x2 = 0.5113	3.142 ± 0.08
x2 = 0.606	3.203 ± 0.081
x2 = 0.6735	3.242 ± 0.082
x2 = 0.7037	3.277 ± 0.083
x2 = 0.7567	3.308 ± 0.084
x2 = 0.8216	3.338 ± 0.085
x2 = 0.903	3.353 ± 0.085

CC(C)C(=O)O + [2H]O[2H]
[1], 101 kPa, x1 = 0.111
Settings	viscosity
318.1 K	2.122 ± 0.17 mPa·s and 2.132 ± 0.2 mPa·s and 2.14 ± 0.2 mPa·s
318.11 K	2.112 ± 0.16 mPa·s
318.12 K	2.092 ± 0.15 mPa·s
318.13 K	2.074 ± 0.14 mPa·s
318.14 K	2.06 ± 0.14 mPa·s
318.15 K	2.046 ± 0.13 mPa·s
318.17 K	2.018 ± 0.11 mPa·s
318.19 K	2.011 ± 0.11 mPa·s
318.2 K	1.997 ± 0.086 mPa·s
318.23 K	1.973 ± 0.078 mPa·s
318.26 K	1.956 ± 0.073 mPa·s
318.29 K	1.944 ± 0.065 mPa·s
318.3 K	1.934 ± 0.12 mPa·s
318.36 K	1.912 ± 0.093 mPa·s
318.39 K	1.902 ± 0.072 mPa·s
318.48 K	1.876 ± 0.058 mPa·s
318.56 K	1.857 ± 0.04 mPa·s
318.66 K	1.838 ± 0.04 mPa·s
318.69 K	1.833 ± 0.037 mPa·s
318.98 K	1.788 ± 0.029 mPa·s
319.21 K	1.763 ± 0.023 mPa·s
319.69 K	1.717 ± 0.02 mPa·s
320.21 K	1.677 ± 0.017 mPa·s
321.2 K	1.615 ± 0.016 mPa·s
322.2 K	1.562 ± 0.014 mPa·s

CCCCCCCCCCCCCCCC + c1ccccc1
[1]
Settings	viscosity
298 K, 101 kPa, x2 = 0.5	1.65 ± 0.043 mPa·s and 1.651 ± 0.043 mPa·s
298.15 K, 101.33 kPa, x1 = 0.0535	0.6803 ± 0.006 mPa·s
298.15 K, 101.33 kPa, x1 = 0.09944	0.7563 ± 0.0066 mPa·s
298.15 K, 101.33 kPa, x1 = 0.2199	0.9761 ± 0.0082 mPa·s
298.15 K, 101.33 kPa, x1 = 0.3234	1.161 ± 0.0095 mPa·s
298.15 K, 101.33 kPa, x1 = 0.4341	1.429 ± 0.011 mPa·s
298.15 K, 101.33 kPa, x1 = 0.5194	1.649 ± 0.013 mPa·s
298.15 K, 101.33 kPa, x1 = 0.641	1.972 ± 0.015 mPa·s
298.15 K, 101.33 kPa, x1 = 0.6928	2.107 ± 0.016 mPa·s
298.15 K, 101.33 kPa, x1 = 0.8361	2.492 ± 0.019 mPa·s
298.15 K, 101.33 kPa, x1 = 0.9416	2.887 ± 0.022 mPa·s
318 K, 101 kPa, x2 = 0.5	1.192 ± 0.032 mPa·s and 1.193 ± 0.032 mPa·s

— the CheMixHub viscosity set
